What was measured:
[1] = tested on: phospholipid vesicles (PC, PG, PE-PG mix, E. coli total, E. coli polar); experiment: Vesicle membrane binding assay (FP), comparison across the five vesicle types; conditions: SSA 0.15 mM, in words
Description: For intrinsically fluorescent SSAs 5, 6 and 8–12, FP titration experiments enabled the observation of SSA: phospholipid vesicle interactions. Here, an increase in FP value indicates an increase in the apparent size of the SSA as it interacts with the phospholipid vesicle.
The results of these studies have been summarised for convenience in Table 3 however, specific SSA: phospholipid vesicle interactions are also exemplified within Fig. 8. […] Here phospholipid vesicle selectivity appears to be driven by the presence of a methyl substituent appended from the benzothiazole unit, in addition to a urea-methyl/ethyl spacer-anionic functionality. Interesting the presence of the thiourea group, increasing SSA […] and increasing hydrogen bond donor acidity, while increasing the levels of vesicle interaction overall, decreased any specific SSA selectivity. […]
Fluorescence polarisation: Lipid films were resuspended in Buffer (150 mM KCl, 10 mM HEPES, pH 7.4, 2 mM EGTA) and subjected to 9 freeze-thaw cycles in liquid nitrogen and extruded 20 times through a 200 nm polycarbonate membrane. Black bottom 96-well plates were prepared by serially diluting desired vesicle solution across the plate, the appropriate SSA solution (100 µL, 0.15 mM) was added to each well to give a total well volume of 200 µL. Fluorescent SSA solutions were set to a FP value of 100 mP. Data were acquired in endpoint mode. […]
1H NMR CPMG: 1H NMR CPMG3,4 spectra were obtained with a Bruker Avance III […] spectrometer equipped with a TCIP cryoprobe at 298 K. Samples were supplemented with 5 % D 2O and 0.02 mM 4,4-dimethyl4-silapentane-1-sulfonic acid (DSS). […]
The P1 pulses were 9 µs at a power of 7.9 W. Presaturation was applied between acquisitions for 100 ms at a power level of 280 mW and acquisition was carried out of 85 2 µs. Water […]
180 o pulses of 1 ms. Repetition times were chosen to achieve suitable water suppression with the presat and watergate sequences used in 95 % H2O solution. The length of the CPMG element was chosen to achieve good differentiation between unbound and strongly bound ligands. Data was collected with 16,384 points and a spectral width of 16.0242 ppm, receiver gain was set to 128, with 512 scans, 8 dummy scans and an acquisition time of 0.85 s. Data was processed using MestreNova software. All spectra were automatically phased, baselined corrected using a polynomial function and calibrated to the centre of the DSS peak.
Fitting of 1H NMR CPMG data: The data was fit to Michaelis Menten and Hill plot models and compared through R2 analysis using Origin 2022 software,5 growth/sigmoidal category, Hill/MichaelisMenten function, Levenberg Marquardt iteration algorithm. Vmax fixed to 100 % as this was the greatest proportion of SSA that could be coordinated to the nanodiscs. […]

[2] = tested on: PC, PG and PE : PG mixed nanodiscs; experiment: Phospholipid nanodisc 1H NMR CPMG coordination assay, comparison across the three nanodiscs; assay type: binding; conditions: SSA 0.10 mM, in words
Description: Finally, to establish how any single SSA structural variation affects the coordination of an individual salt component to the surface of a phospholipid membrane, the binding of the anionic and cationic components of SSAs 5–12 with nanodiscs comprised of PC, PG or the PE : PG mix (Table 2) was studied. Nanodiscs were synthesised from synthetic vesicles of the relevant phospholipid composition. For full synthetic procedures and nanodisc characterisation please see ESI (Section 13). ^†[34,35]
Styrene-maleic acid (SMA) nanodiscs are small biomimetic scaffolds with a hydrodynamic diameter ≈ 10 nm. […]
Fluorescence polarisation: Lipid films were resuspended in Buffer (150 mM KCl, 10 mM HEPES, pH 7.4, 2 mM EGTA) and subjected to 9 freeze-thaw cycles in liquid nitrogen and extruded 20 times through a 200 nm polycarbonate membrane. […]
Nanodisc preparation: Lipid films were resuspended in Buffer (20 mM NaCl, 20 mM NaH 2PO4, pH 7.4) and sonicated for 1 hour, at a 5:1 ratio, SMA was added and incubated at 37 °C for 1 hour. Dialysed overnight in 5 L of the same buffer in 10 KDa cut-off dialysis tubing, concentrated, and underwent gel filtration size exclusion chromatography on a Superdex 200 10/300 GL column (GE Healthcare) in the same buffer, whilst monitoring absorbance at 260 nm. Nanodisc quantification carried out via monitoring of absorbance at 260 nm using a calibration curve.2 […]

MRSA USA300 = conditions: n = 3, 0.5 McFarland standard, after 900 min, number in bracket = efficacy rank; cited from earlier work

Cc1ccc2nc(-c3ccc(NC(=S)NCS(=O)(=O)O)cc3)sc2c1 [SSA 12]
SSA: phospholipid vesicle interaction / selectivity (FP titration) [1]: strong interaction with all phospholipid vesicles tested
interaction of the anionic component of SSA with phospholipid nanodiscs [2]: greatest binding affinity for all three nanodiscs of the SSAs tested

O=C(NCS(=O)(=O)O)Nc1ccccc1-c1nc2ccccc2s1 [SSA 5]
MIC50 MRSA (MRSA USA300): 0.99(5) mM

Cc1ccc2nc(-c3ccc(NC(=O)NCS(=O)(=O)O)cc3)sc2c1 [SSA 6]
MIC50 MRSA (MRSA USA300): 0.93(4) mM
SSA: phospholipid vesicle interaction / selectivity (FP titration) [1]: limited selectivity with a preference for PC, PG and E. coli polar over the E. coli total and PG : PE mix

Cc1ccc2nc(-c3ccc(NC(=O)NCCCS(=O)(=O)O)cc3)sc2c1 [SSA 10]
SSA: phospholipid vesicle interaction / selectivity (FP titration) [1]: little selectivity for different phospholipid membranes

O=C(NCS(=O)(=O)O)Nc1ccc(-c2nc3ccccc3s2)cc1 [SSA 8]
SSA: phospholipid vesicle interaction / selectivity (FP titration) [1]: little selectivity for different phospholipid membranes

O=C(NCS(=O)(=O)O)Nc1ccc(C(F)(F)F)cc1 [SSA 3]
MIC50 MRSA (MRSA USA300): 0.35(1) mM

Cc1ccc2nc(NC(=O)NCS(=O)(=O)O)sc2c1 [SSA 7]
interaction of the anionic component of SSA with phospholipid nanodiscs [2]: not to interact with any great significance to any of the phospholipid nanodiscs tested

O=C(O)CNC(=O)Nc1ccc(C(F)(F)F)cc1 [SSA 4]
MIC50 MRSA (MRSA USA300): 1.14(6) mM

O=C(NCS(=O)(=O)O)Nc1ccc(C(F)(F)F)cc1 [SSA 1]
MIC50 MRSA (MRSA USA300): 0.46(2) mM

Source: paper PMC9400670, “Establishing the selective phospholipid membrane coordination, permeation and lysis properties for a series of ‘druggable’ supramolecular self-associating antimicrobial amphiphiles” (Chemical Science, 2022)
